“And” between values parts separate entries of the source, which are not always exact repeats. Equal entries are not always repeated. Numbered stars: 1 amine (or outer) side, 2 acyl side, 3 side chain; on linkers, the order of the positions; unused ones are H or OH. Bridge positions count the residues as written; N and C are the ends. Square brackets hold non-standard residues; d marks the D form. Peptide text beside a SMILES is read from it. I, II: the chains in the order shown. Hexamethylenediamine = C(CCCN[*:2])CCN[*:1]; Dip = N[C@H](C(=O)O)C(c1ccccc1)c1ccccc1; Chg = N[C@H](C(=O)O)C1CCCCC1; NMeA = CN[C@@H](C)C(=O)O
How the values were obtained:
[1] = molecular target: T1, Peregrin (Homo sapiens) (UniProt P55201); conditions: Compound concentration 20.0 uM, Protein concentration 2.0 uM, Result type QC Liability
T1 sequence (whole entry): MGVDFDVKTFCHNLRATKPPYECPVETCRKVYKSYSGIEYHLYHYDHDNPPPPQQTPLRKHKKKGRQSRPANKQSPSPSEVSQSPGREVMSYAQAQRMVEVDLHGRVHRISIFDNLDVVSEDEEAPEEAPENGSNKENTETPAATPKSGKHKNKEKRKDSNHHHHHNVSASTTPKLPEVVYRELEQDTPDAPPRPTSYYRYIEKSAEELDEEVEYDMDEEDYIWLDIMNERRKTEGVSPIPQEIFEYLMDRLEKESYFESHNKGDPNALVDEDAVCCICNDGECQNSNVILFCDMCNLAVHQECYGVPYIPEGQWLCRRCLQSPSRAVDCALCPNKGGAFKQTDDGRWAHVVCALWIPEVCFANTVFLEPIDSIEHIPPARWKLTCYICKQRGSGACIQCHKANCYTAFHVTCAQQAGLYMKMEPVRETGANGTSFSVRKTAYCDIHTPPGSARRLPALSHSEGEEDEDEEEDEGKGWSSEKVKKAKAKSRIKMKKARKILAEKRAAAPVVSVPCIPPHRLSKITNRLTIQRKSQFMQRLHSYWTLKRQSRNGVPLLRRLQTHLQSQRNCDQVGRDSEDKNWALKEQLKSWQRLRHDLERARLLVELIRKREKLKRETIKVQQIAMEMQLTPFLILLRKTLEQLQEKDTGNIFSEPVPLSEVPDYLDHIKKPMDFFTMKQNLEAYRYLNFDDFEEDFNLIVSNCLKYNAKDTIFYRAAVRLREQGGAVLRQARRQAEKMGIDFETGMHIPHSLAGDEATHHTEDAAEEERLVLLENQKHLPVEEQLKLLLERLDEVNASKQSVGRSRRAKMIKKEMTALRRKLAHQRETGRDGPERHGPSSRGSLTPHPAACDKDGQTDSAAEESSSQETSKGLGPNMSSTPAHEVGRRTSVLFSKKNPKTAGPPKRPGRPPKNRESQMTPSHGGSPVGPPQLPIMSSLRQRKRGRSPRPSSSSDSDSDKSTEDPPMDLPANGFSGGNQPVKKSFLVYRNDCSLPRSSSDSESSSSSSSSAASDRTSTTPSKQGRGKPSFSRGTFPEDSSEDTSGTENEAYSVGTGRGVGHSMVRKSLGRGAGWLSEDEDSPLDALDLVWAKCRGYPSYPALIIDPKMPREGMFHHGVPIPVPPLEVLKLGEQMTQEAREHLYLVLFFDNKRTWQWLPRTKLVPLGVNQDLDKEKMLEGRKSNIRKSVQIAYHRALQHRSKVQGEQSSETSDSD

[2] = molecular target: Fibroblast growth factor receptor 3 (Homo sapiens) (UniProt P22607); conditions: Compound concentration 20.0 uM, Protein concentration 2.0 uM, Result type QC Liability
Sequence of Fibroblast growth factor receptor 3 (Homo sapiens) (P22607 23-806 limits assumed): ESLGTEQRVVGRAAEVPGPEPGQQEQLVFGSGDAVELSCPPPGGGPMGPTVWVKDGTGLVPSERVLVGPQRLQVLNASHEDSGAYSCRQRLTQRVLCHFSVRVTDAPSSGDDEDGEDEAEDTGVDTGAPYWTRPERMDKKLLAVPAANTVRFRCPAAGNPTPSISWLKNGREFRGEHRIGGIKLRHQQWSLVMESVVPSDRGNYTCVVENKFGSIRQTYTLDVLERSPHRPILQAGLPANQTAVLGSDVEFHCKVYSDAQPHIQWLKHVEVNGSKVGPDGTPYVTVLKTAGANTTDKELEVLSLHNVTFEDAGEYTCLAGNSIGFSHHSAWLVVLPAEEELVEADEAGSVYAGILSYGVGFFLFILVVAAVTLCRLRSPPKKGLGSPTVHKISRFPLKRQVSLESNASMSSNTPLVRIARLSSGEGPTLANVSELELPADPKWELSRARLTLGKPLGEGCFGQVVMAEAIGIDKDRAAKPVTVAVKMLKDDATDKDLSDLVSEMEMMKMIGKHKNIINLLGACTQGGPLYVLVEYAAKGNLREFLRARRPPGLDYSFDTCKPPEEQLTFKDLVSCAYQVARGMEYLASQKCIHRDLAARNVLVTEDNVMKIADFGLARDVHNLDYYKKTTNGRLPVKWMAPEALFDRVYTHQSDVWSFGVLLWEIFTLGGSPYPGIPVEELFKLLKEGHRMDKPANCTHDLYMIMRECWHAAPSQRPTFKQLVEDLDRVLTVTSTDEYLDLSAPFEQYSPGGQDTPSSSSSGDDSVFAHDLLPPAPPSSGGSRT
Description: Thermal Shift Assay. Domain: start/stop: P449-E759

SMILES	ΔTm [1]	ΔTm [2]
Cc1cc(OC2CCS(=O)(=O)CC2)cc(C)c1-c1cccc(COc2ccc(CCC(=O)O)c(F)c2)c1	-4.37 °C	0.31 °C
O=C(O)c1ccnc(N2CC(O)(c3ccc(OCc4c(-c5c(Cl)cccc5Cl)noc4C4CC4)cc3Cl)C2)c1	-1.75 °C	0.03 °C
CC(=O)c1ccc2c(c1)/C(=C(/Nc1cccc(C#N)c1)c1ccc3c(c1)OCCO3)C(=O)N2	-0.95 °C	4 °C
CCN1C(=O)C(c2cccc(C(=O)O)c2)C(=O)N(c2ccccc2)c2cc(C(F)(F)F)ccc21 (centres undefined)	-1.55 °C	0.62 °C
CC(=O)c1c(C)c2cnc(Nc3ccn(C)n3)nc2n(C2CCCC2)c1=O	-0.34 °C	-0.69 °C
CC[C@H](CO)Nc1nc(Nc2cccc(-c3ccccn3)c2)c2ncn(C(C)C)c2n1	-2.18 °C	2.78 °C
CC(C)(O)CNC(=O)N1C(=O)N(c2cccc(C(F)(F)F)c2)C2=C(C(=O)CC2)[C@@H]1c1ccc(C#N)cc1	-2.73 °C	0.55 °C
CNC(=O)c1c(F)cccc1Nc1nc(Nc2cc3c(cc2OC)CCN3C(=O)CN(C)C)nc2[nH]ccc12	-2.03 °C	0.2 °C
CC(C)(C)C(=O)NCc1ccc(Cl)c(C(=O)Nc2ncc[nH]2)c1	-2.86 °C	0.47 °C
Cc1nn(C)c(COc2ccc(N3CCN(S(=O)(=O)N(C)C)CC3)cc2)c1-c1cccc2c(CCCOc3cccc4ccccc34)c(C(=O)O)n(CCN3CCOCC3)c12	-2.4 °C	0.47 °C
CN(C)[C@H]1CC[C@H](Nc2ncc3ncnc(Nc4ccc(F)c(Cl)c4)c3n2)CC1	1.59 °C	0.8 °C
Cc1cn(CCN2CCN(c3ccccc3-c3cc(C#N)cc(C(=O)NCCCN4CCCC4)c3)CC2)c2ccccc12	0.42 °C	-1.2 °C
CC(C)c1nc2c(c3c1[C@H](c1ccc(C(F)(F)F)cc1)OC31CCOCC1)[C@H](O)CC(C)(C)C2	-3.09 °C	0.52 °C
Cc1ncc(C(=O)Nc2cc(C(C)(C)C)on2)cc1-n1cc(-c2cnn(C)c2C)nn1	0.08 °C	2.95 °C
COc1cc(-c2cc3ncccc3c(O[C@@H](C)[C@H]3CNC(=O)C3)n2)cc(OC)c1OC	-2.76 °C	0.6 °C
CCCN1CCC(C#N)(NC(=O)[C@H](CC(C)(C)C)NC(=O)N2CCOCC2)CC1	-2.18 °C	0.37 °C
CNC(=O)c1ccc(C)c(-n2c(C)cc(OCc3ccc(F)cc3F)c(Br)c2=O)c1	-1.84 °C	-1.16 °C
COc1ccc(OC(=O)N(CC(=O)O)Cc2ccc(OCCc3nc(-c4ccccc4)oc3C)cc2)cc1	-1.99 °C	0.89 °C
CCN1CCN(Cc2ccc(Nc3ncc(F)c(-c4cc(F)c5nc(C)n(C(C)C)c5c4)n3)nc2)CC1	-1.26 °C	3.23 °C

SMILES	ΔTm [1]	ΔTm [2]
CN1CC(=O)N(C)c2cnc(Nc3ccc(NC(=O)Nc4cccc(C(=O)O)c4)cc3)nc21	-0.81 °C	1.19 °C
CC[C@H](CC(=O)O)n1c(=O)c2ncccc2n(Cc2cn(C)c3cc(C)cc(C)c23)c1=O	-2.28 °C and -0.95 °C	0.98 °C and 0.62 °C
CC(C)S(=O)(=O)c1ccccc1Nc1nc(N[C@@H]2CCCN(CCCCCCCNC(=O)COc3cccc4c3C(=O)N(C3CCC(=O)NC3=O)C4=O)C2)ncc1Cl (some centres undefined)	0.63 °C	7.81 °C
CCC(=O)N[C@H]1CC[C@@H](C(=O)N(C)c2ccc(-c3nc4ccccc4o3)cc2)C1	-2.71 °C	0.8 °C
CCN(C(=O)CO)[C@H]1CN(/C(=N\C#N)Nc2cccc(OC(F)F)c2)N=C1c1ccc(Cl)c(Cl)c1	-1.11 °C	0.47 °C
Cc1nc2ccc(Oc3ccc(F)cc3)cc2c(=O)n1C[C@H]1CCCN(C(C)C)C1	-2.47 °C	0.96 °C
CCn1c(-c2nonc2N)nc2cncc(C(=O)N3CC[C@H](N)C3)c21	-1.78 °C	0.35 °C
CN[C@@H](C)C(=O)N[C@H](C(=O)N1CCC[C@H]1C(=O)N[C@H](C(=O)NCCCCCCNC(=O)[C@@H](NC(=O)[C@@H]1CCCN1C(=O)[C@@H](NC(=O)[C@H](C)NC)C1CCCCC1)C(c1ccccc1)c1ccccc1)C(c1ccccc1)c1ccccc1)C1CCCCC1 (I: H-[NMeA][Chg]P[Dip] / II: H-[NMeA][Chg]P[Dip]; linker I:C-II:C via Hexamethylenediamine)	-2.83 °C	0.66 °C
O=C(CCCN1CCC(O)(c2ccc(Cl)cc2)CC1)c1ccc(F)cc1	-1.6 °C	0.59 °C
N[C@H](C(=O)O)[C@@H]1CC(Cl)=NO1	-1.19 °C	0.45 °C
O=C(Cc1ccccc1[N+](=O)[O-])Nc1ccc(-c2ccc(C(O)(C(F)(F)F)C(F)(F)F)cc2F)cc1	1.8 °C	1.47 °C
Cc1ccc(C(=O)Nc2cc(N3CCN(C)CC3)cc(C(F)(F)F)c2)cc1-n1cc(-c2cnn(C)c2C)nn1	-0.61 °C	3.8 °C
Cc1c(NC(=O)COc2ccc(Cl)cc2C(=O)c2cc(F)cc(C(F)(F)F)c2)ccc(C(=O)O)c1F	-2.51 °C and -1.17 °C	0.45 °C and 3.99 °C
COc1ccc(S(=O)(=O)N2CCOCC2)cc1Nc1ccc2c(n1)N(C1CCN(C)CC1)[C@H](C)C(=O)N2C	1.52 °C	0.38 °C
CC(C)S(=O)(=O)c1ccccc1Nc1nc(N[C@@H]2CCCN(CCCCCCCNC(=O)COc3cccc4c3C(=O)N(C3CCC(=O)N(C)C3=O)C4=O)C2)ncc1Cl (some centres undefined)	-2.55 °C	8.15 °C
CN1C(=O)c2c(nn(Cc3ccc(-c4cccc(F)n4)cc3)c2Nc2ccccc2)N2C1=N[C@@H]1CCC[C@@H]12	-3.07 °C	-0.44 °C
CCOC(=O)CS(=O)(=O)c1ccc([C@@H](CO)NC(=O)c2cc3c(Cl)c(Cl)c(C)cc3n2C)cc1	-8.76 °C	2.82 °C
CC(C)[C@H](CO)Nc1nc(Nc2ccc(C(=O)O)c(Cl)c2)c2ncn(C(C)C)c2n1	0.06 °C	4.45 °C
Cc1cc(=O)oc2cc(NC(=O)[C@H](Cc3ccc(I)cc3)NC(=O)[C@H]3N[C@@H]4CC[C@H]3C4)ccc12	-1.46 °C	0.37 °C

SMILES	ΔTm [1]	ΔTm [2]
Fc1ccc(-c2nc(-c3ccc4ccccc4c3F)[nH]c2-c2ccncc2)cc1	0.17 °C	1.19 °C
C[C@H](CCC(=O)O)[C@H]1CC[C@H]2[C@@H]3CC[C@@H]4C[C@H](O)CC[C@]4(C)[C@H]3CC[C@]12C	-3.84 °C	-0.33 °C
COc1cc2ncnc(Nc3cccc(O)c3)c2cc1OC	-1.59 °C	2.74 °C
CO[C@@H](C)CN1CC[C@]2(C)c3cc(O)ccc3C[C@H]1C2(C)C	-3.01 °C	1.13 °C
CCCCC(C)(O)C/C=C/[C@H]1[C@H](O)CC(=O)[C@@H]1CCCCCCC(=O)O (some centres undefined)	-1.2 °C	0.43 °C
C[C@H](NC(=O)c1cc(Cl)ccc1Oc1ccc(F)cc1)c1ccc(C(=O)O)cc1	-3.01 °C	0.47 °C
CN1Cc2nccc(-c3cn(C)nc3-c3ccc(F)cc3)c2C1=O	-1.84 °C	0.27 °C
Cc1cnc(Nc2ccc(C(=O)N3CCN(C)CC3)cc2)nc1N[C@@H]1CCC[C@@H]1C(N)=O	-1.57 °C	7.25 °C
N#Cc1c(SCc2csc(-c3ccc(Cl)cc3)n2)nc(N2CCCC2)c(C#N)c1-c1ccc(OCCO)cc1	-3.79 °C	1.06 °C
O=C1NC(=NCc2cccs2)SC1=Cc1ccc2ncccc2c1	-1.16 °C	0.61 °C
OCC1OC(n2cnc3cc(Cl)c(Cl)cc32)C(O)C1O (centres undefined)	-1.16 °C	0.39 °C
Cc1cc2ncnn2cc1Nc1ncc2c(n1)n(C1CCOCC1)c(=O)n2C	-4.35 °C	0.53 °C
O=C1Nc2ccc(I)cc2/C1=C/c1cc(Br)c(O)c(Br)c1	-0.58 °C	0.51 °C
CN(C)CC#Cc1ccc2[nH]c3c(c2c1)-c1nc(N)ncc1CCC3	-0.87 °C	3.51 °C
COC(=O)Nc1nc2c(s1)-c1c(c(-c3cccnc3)nn1-c1ccc(C3(N(C)C)CC3)cc1)CC2	-1.72 °C	1.4 °C
CC(C)(C)OC(=O)CN1C(=O)c2c(OCC(=O)O)cccc2Oc2ccc(C(F)(F)F)cc21	-3.16 °C	0.75 °C
COc1ccc(CC[C@@H](OC(=O)[C@H]2CCCCN2C(=O)[C@@H](c2cc(OC)c(OC)c(OC)c2)C2CCCCC2)c2cccc(OCCN3CCOCC3)c2)cc1OC	-4.81 °C	-3.96 °C
CN(C)CCCN1c2ccccc2Sc2ccc(Cl)cc21	-1.01 °C	0.65 °C
Nc1ncnc2c1c(I)cn2[C@@H]1O[C@H](CO)[C@@H](O)[C@H]1O	-1.79 °C	3.13 °C
